Measured values from patent publication US5658500A, “Substituted naphthopyrans” (Transitions Optical, Inc., priority 1995, dated 1997).

Tests used:
[1] = photochromic response of test squares on an optical bench (sensitivity, saturation optical density, bleach rate); format: physicochemical; conditions: for ΔOD @ SATURATION: UV exposure 20 minutes; for ΔOD @ SATURATION / ΔOD/MIN SENSITIVITY: 75° F. (23.9° C.); for ΔOD/MIN SENSITIVITY: first five seconds of UV exposure, expressed per minute; for Bleach Rate (T1/2): room temperature (75° F., 23.9° C.) after removal of activating light
Protocol: (§1) Testing was done with the photochromic naphthopyrans of the Examples incorporated or imbibed into test square polymerizates by one of two different methods. In Method I, the photochromic naphthopyrans of the Examples were incorporated into polymeric samples. The quantity of naphthopyran calculated to yield a 1.5 times 10^-3 molal solution was added to a flask containing 50 grams of a monomer blend of 4 parts ethoxylated bisphenol A dimethacrylate (BPA 2EO DMA), 1 part poly(ethyleneglycol) 600 dimethacrylate, and 0,033 weight percent 2,2'-azobis(2-methyl propionitrile) (AIBN). The naphthopyrans were dissolved into the monomer blend by stirring and gentle heating, if necessary. After a clear solution was obtained, it was poured into a flat sheet mold having the interior dimensions of 2.2 mm×6 inches (15.24 cm)×6 inches (15.24 cm). The mold was sealed and placed in a horizontal air flow, programmable oven set to increase the temperature from 40° C. to 95° C. over a 5 hour interval, hold the temperature at 95° C. for 3 hours and then lower it to 60° C. for at least 2 hours before the end of the curing cycle. After the molds were opened, the polymer sheets were cut using a diamond blade saw into 2 inch (5.1 centimeters) test squares.
(§2) In Method II, the photochromic naphthopyran was imbibed into test square polymerizates prepared from a diethylene glycol bis(allyl carbonate) composition. The test squares measured 1/8 inch (0.3 centimeters)×2 inches (5.1 centimeters)×2 inches (5.1 centimeters). In the imbibition process, the photochromic naphthopyran was dissolved to form a 10 weight percent solution in a 1:9 mixture of ethyl cellulose:toluene. The solution was then spin coated onto the test squares and allowed to dry. […] After cooling, the ethyl cellulose/toluene resin film was removed from the test squares by washing with acetone.
The photochromic test squares were tested for photochromic response rates on an optical bench. […] The bench was fitted with a 150 watt Xenon arc lamp, a remote controlled shutter, a copper sulfate bath acting as a heat sink for the arc lamp, a Schott WG-320 nm cut-off filter which removes short wavelength radiation; neutral density filter(s) and a sample holder in which the square to be tested was inserted. A collimated beam of light from a tungsten lamp was passed through the square at a small angle normal to the square. After passing through the square, the light from the tungsten lamp was directed through a photopic filter attached to a detector. The photopic filter passes wavelengths such that the detector mimics the response of the human eye. The output signals from the detector(s) were processed by a radiometer.
Change in optical density (ΔOD) was determined by inserting a test square in the bleached state into the sample holder, adjusting the transmittance scale to 100%, opening the shutter from the Xenon lamp to provide ultraviolet radiation to change the test square from the bleached state to an activated (i.e., darkened) state, measuring the transmittance in the activated state, and calculating the change in optical density according to the formula ΔOD=log(100/%Ta) where %Ta is the percent transmittance in the activated state and the logarithm is to the base 10.
(§3) The ΔOD/Min, which represents the sensitivity of the photochromic compound's response to UV light, was measured over the first five (5) seconds of UV exposure, then expressed on a per minute basis. The saturation optical density (OD) was taken under identical conditions as the ΔOD/Min, except UV exposure was continued for 20 minutes for the examples in Table 1. The lambda max reported in Table 1 is the wavelength in the visible spectrum at which the maximum absorption of the activated (colored) form of the photochromic compound in a diethylene glycol bis(allyl carbonate) composition occurs.

[2] = lambda max of the activated (colored) form in the visible spectrum; format: physicochemical; parameters: unit not given here; conditions: wavelength of maximum absorption of the activated form, in a diethylene glycol bis(allyl carbonate) composition
Protocol: as §1
as §2, with “dry. Samples were then heated in a hot-air oven at 135°-155°C. for a period of time sufficient to thermally transfer the photochromic into the test squares.” for “dry.”
as §3, with “occurs. The Bleach Rate (T 1/2) is the time interval in seconds for the absorbance of the activated form of the naphthopyran in the test squares to reach one half the highest absorbance at room temperature (75° F., 23.9° C.) after removal of the source of activating light.” for “occurs.”

[3] = Method II (imbibed) test square

SMILES	ΔOD @ SATURATION ([1]; Method I test square)	ΔOD/MIN SENSITIVITY ([1]; Method I test square)	Bleach Rate (T1/2) ([1]; Method I test square) [min]	LAMBDA MAX (VISIBLE) [2]	ΔOD @ SATURATION [1, 3]	ΔOD/MIN SENSITIVITY [1, 3]	Bleach Rate (T1/2) [1, 3] [min]
COC(=O)c1c2c(c3ccccc3c1OC(C)=O)OC(c1ccc(N(C)C)cc1)(c1ccc(N(C)C)cc1)C=C2 [Example 8, 2,2-bis (4-dimethylaminophenyl)-5-methoxycarbonyl-6-acetoxy-2H-naphtho[1,2-b]pyran]	0.07	0.16 ΔOD/MIN	0.317	618	–	–	–
COC(=O)c1c2c(c3ccccc3c1OC(C)=O)OC(c1ccccc1)(c1ccc(N3CCOCC3)cc1)C=C2 (centres unmarked) [Example 3, 2-(4-morpholinophenyl)-2-phenyl-5-methoxycarbonyl-6-acetoxy-2H-naphtho[1,2-b]pyran]	0.31	0.24 ΔOD/MIN	1.47	545	–	–	–
COC(=O)c1c2c(c3ccccc3c1OC(C)=O)OC(c1ccccc1)(c1ccc3c4ccccc4n(-c4ccccc4)c3c1)C=C2 (centres unmarked) [Example 5, 2-(9-phenylcarbazol-2-yl)-2-phenyl-5-methoxycarbonyl-6-acetoxy-2H-naphtho[1,2-b]pyran]	0.88	0.31 ΔOD/MIN	1.17	520	–	–	–
CCn1c2ccccc2c2ccc(C3(c4ccccc4)C=Cc4c(C(=O)OC)c(OC(C)=O)c5ccccc5c4O3)cc21 (centres unmarked) [Example 4, 2-(9-ethylcarbazol-2-yl)-2-phenyl-5-methoxycarbonyl-6-acetoxy-2H-naphtho[1,2-b]pyran]	–	–	–	528	0.46	0.67 ΔOD/MIN	4.5
COC(=O)c1c2c(c3ccccc3c1O)OC(c1ccccc1)(c1ccc(N3CCOCC3)cc1)C=C2 (centres unmarked) [Example 1, 2-(4-morpholinophenyl)-2-phenyl-5-methoxycarbonyl-6-hydroxy-2H-naphtho[1,2-b]pyran]	1.36	0.64 ΔOD/MIN	3.22	511	–	–	–
COC(=O)c1c2c(c3ccccc3c1OC(C)=O)OC(c1ccccc1)(c1ccc(N(C)C)cc1)C=C2 (centres unmarked) [Example 6, 2-(4-dimethylaminophenyl)-2-phenyl-5-methoxycarbonyl-6-acetoxy-2H-naphtho[1,2-b]pyran]	0.30	0.27 ΔOD/MIN	1.17	591	–	–	–
COC(=O)c1c2c(c3ccccc3c1OC)OC(c1ccccc1)(c1ccc(N3CCOCC3)cc1)C=C2 (centres unmarked) [Example 2, 2-(4-morpholinophenyl)-2-phenyl-5-methoxycarbonyl-6-methoxy-2H-naphtho[1,2-b]pyran]	0.95	0.29 ΔOD/MIN	4.87	541	–	–	–
COC(=O)c1c2c(c3ccccc3c1C)OC(c1ccccc1)(c1ccc(N(C)C)cc1)C=C2 (centres unmarked) [Example 7, 2-(4-dimethylaminophenyl)-2-phenyl-5-methoxycarbonyl-6-methyl-2H-naphtho[1,2-b]pyran]	0.51	0.20 ΔOD/MIN	3.33	584	–	–	–
